Test results from patent US5554631A, “5-pyrrolyl-6-halogeno-2-pyridylmethylsulfinyl benzimidazole derivatives” (Il-Yang Pharm. Co., Ltd., priority 1994, dated 1996).

How the values were obtained:
in vivo = settings: mouse, in vivo, po
Procedure: (§1) Five weeks aged ICR (male, female) mouse were pre-bred in the breeding cage for one week and then the animals showing a smooth gain in body weight were randomly selected and used in this test. The amount to be administered to the test animals was established on the basis of the maximum dose of 5,000 mg/kg with the common ratio of 1.5.
(§2) The test compounds in a powder were suspended in 0.5% methylcellulose and administered per oral using a lml syringe. The other specific conditions for administration are described in the following.
(§3) In the above test, the control group received only 0.5% methylcellulose.
(§4) (1) Clinical symptoms and death of test animals
(§5) The clinical symptoms and death of test animals caused by the test compounds were recorded immediately after administration of the test compounds and during the overall test period.

ICR (male, female) mouse = test: in vivo; settings: mouse
Procedure: as §1, §2, §3, §4, §5

H^+ /K^+ -ATPase = molecular target: T1, H^+ /K^+ -ATPase (Oryctolagus cuniculus, UniProt P27112); test: Inhibition of H+/K+-ATPase enzyme activity in vitro; type: biochemical, rabbit; settings: rabbit gastric microsomal H+/K+-ATPase, 5 min pre-incubation at 37° C., 4 mM ATP; read-out: IC50
T1 construct: The gastric mucous membrane was removed from rabbit; from tissue; host or cells: rabbit gastric mucosa, microsomal fraction (77,000 xg)
T1 sequence (P27112 2-1035 limits assumed): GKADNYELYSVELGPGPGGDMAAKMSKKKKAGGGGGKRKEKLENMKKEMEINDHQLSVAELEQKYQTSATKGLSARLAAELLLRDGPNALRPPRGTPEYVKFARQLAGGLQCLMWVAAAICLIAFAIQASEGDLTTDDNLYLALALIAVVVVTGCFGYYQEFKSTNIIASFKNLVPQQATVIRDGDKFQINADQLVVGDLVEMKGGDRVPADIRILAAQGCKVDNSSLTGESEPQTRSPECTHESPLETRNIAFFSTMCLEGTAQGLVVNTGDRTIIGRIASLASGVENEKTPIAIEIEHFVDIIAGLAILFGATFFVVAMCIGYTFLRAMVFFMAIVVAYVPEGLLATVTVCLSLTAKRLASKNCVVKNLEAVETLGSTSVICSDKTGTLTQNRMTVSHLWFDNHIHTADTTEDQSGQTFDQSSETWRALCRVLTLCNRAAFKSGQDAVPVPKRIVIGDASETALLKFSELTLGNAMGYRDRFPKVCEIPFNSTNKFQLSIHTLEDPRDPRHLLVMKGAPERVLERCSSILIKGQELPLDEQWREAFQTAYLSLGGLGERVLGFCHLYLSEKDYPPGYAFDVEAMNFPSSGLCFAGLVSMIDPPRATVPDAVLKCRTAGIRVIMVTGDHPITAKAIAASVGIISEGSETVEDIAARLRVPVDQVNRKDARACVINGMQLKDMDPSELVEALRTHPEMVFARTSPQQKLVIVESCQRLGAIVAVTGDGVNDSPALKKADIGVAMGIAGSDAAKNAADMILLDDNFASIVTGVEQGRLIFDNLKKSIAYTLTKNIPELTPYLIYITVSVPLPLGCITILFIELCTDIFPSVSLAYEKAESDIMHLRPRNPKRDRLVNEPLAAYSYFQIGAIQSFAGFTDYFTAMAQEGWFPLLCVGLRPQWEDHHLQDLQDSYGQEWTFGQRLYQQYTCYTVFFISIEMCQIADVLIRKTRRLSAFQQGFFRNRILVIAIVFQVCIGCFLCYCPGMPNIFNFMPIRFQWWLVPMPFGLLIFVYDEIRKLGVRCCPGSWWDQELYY
T1 sequence (P18597 whole entry partner): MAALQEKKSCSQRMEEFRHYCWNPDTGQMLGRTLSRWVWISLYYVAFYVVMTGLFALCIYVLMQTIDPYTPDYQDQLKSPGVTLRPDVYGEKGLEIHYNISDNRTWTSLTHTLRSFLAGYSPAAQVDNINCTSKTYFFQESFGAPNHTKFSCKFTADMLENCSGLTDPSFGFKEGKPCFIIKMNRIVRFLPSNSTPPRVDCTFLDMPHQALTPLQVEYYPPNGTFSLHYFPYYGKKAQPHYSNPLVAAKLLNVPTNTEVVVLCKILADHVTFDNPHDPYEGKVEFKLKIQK
Procedure: The gastric mucous membrane was removed from rabbit and then centrifuged with 77,000 xg using a ultracentrifuge to separate the microsomal fraction which was used as the source of H^+ /K^+ -ATPase enzyme for this test. 60 μg of H^+ /K^+ -ATPase was pre-incubated with the sample (the compound according to the present invention) for 5 minutes at 37° C. and then 4 mM ATP as the substrate and 4 mM Mg^++, 20 mM K^+ as the cofactor were added thereto. Then, the amount of inorganic phosphorus thus produced was determined using a spectrophotometer at 660 nm and converted into the amount of protein according to Lowry method. […]

acidity = test: Inhibition of acidity (total acid output), Shay method; type: in vivo, SD male rats; settings: 5 h; for Volume (inhibition of acidity) / Inhibition rate, acidity: intraduodenal, rat; for Inhibition rate, acidity: vs normal group
Procedure: (§6) The specific test methods are as follows.
(§7) SD male rats (200±20 g) were fasted for 24 hours, except for water, and then anesthesized with ether. The abdomen of rats was incised and then the pylorus was ligated. The test compounds were suspended or dissolved in […] (carboxymethylcellulose) and injected into duodenum. After the abdomen was suctured, the rats were allowed to stand for 5 hours and then sacrificed with ether. The stomach was removed from rats and the gastric juices were collected. The gastric juice was centrifuged with 10,000×g for 10 minutes at 4° C. to remove the precipitate. The amount of gastric juice and acidity were determined using pH 7.0 end point assay with 0.02N NaOH and then the total acid output was calculated.

[1] = test system: gastric and duodenal ulcers; test: Anti-ulcer effect / pharmacological efficacy (general statements); settings: in words
gastric juice secretion = test: Inhibition of gastric juice secretion, Shay method; type: in vivo, SD male rats; settings: 5 h; for Gastric juice volume / Inhibition rate, gastric juice secretion: intraduodenal, rat; for Inhibition rate, gastric juice secretion: vs normal group
Procedure: as §6, §7

SMILES: COc1ccnc(C[S+]([O-])c2nc3cc(-n4cccc4)c(F)cc3[nH]2)c1C (stereo not drawn) [Compound 2, 2-[[(4-methoxy-3-methyl)-2-pyridinyl]methylsulfinyl]-5-(1H-pyrrol-1-yl)-6-fluoro-1H-benzimidazole]
- LD50 (in vivo): > 5000 mg/kg
- Acute toxicity (in words) (ICR (male, female) mouse; clinical symptoms, death and autopsy results, oral): very low as in Omeprazole
- Safety (conclusion) (ICR (male, female) mouse; in vivo): very safe compound
- LD50 (ICR (male, female) mouse; in vivo, po): > 5,000.0 mg/kg BW
- Visual autopsy view (ICR (male, female) mouse; in vivo, po): No specific abnormal autopsy view was observed
- IC50 (H^+ /K^+ -ATPase): 4.1 µM
- Volume (inhibition of acidity) (acidity; 3 mg/kg): 34.60 ± 8.12 μEq/hr
- Inhibition rate, acidity (acidity; 3 mg/kg): 40.62%
- Volume (inhibition of acidity) (acidity; 10 mg/kg): 14.28 ± 4.28 μEq/hr
- Inhibition rate, acidity (acidity; 10 mg/kg): 75.35%
- Volume (inhibition of acidity) (acidity; 30 mg/kg): 5.72 ± 0.59 μEq/hr
- Inhibition rate, acidity (acidity; 30 mg/kg): 90.13%
- ED50 (acidity; Rattus norvegicus): 4.04 mg/kg
- Anti-ulcer effect compared with Omeprazole [1]: anti-ulcer effect is similar to that of Omeprazole
- Gastric juice volume (gastric juice secretion; 3 mg/kg): 2.11 ± 0.36 ml/100 g BW
- Inhibition rate, gastric juice secretion (gastric juice secretion; 3 mg/kg): 35.28%
- Gastric juice volume (gastric juice secretion; 10 mg/kg): 1.52 ± 0.19 ml/100 g BW
- Inhibition rate, gastric juice secretion (gastric juice secretion; 10 mg/kg): 53.37%
- Gastric juice volume (gastric juice secretion; 30 mg/kg): 1.03 ± 0.10 ml/100 g BW
- Inhibition rate, gastric juice secretion (gastric juice secretion; 30 mg/kg): 68.40%
- ED50 (gastric juice secretion; Rattus norvegicus): 8.18 mg/kg
